Patent US20250163057A1, “DCN-1 MODULATING COMPOUNDS AND METHODS OF USE THEREOF” (Cellarity, Inc., priority 2023, published 2025)
Like-named read-outs stand apart in the source and are kept apart here.

Assays:
[1] = molecular target: DCN1 (DCUND1) protein PONY domain (Homo sapiens (Human), UniProt Q96GG9); assay: TR-FRET assay, DCN1 binding with FAM-labeled probe
Procedure, shortened: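 First, the E. coli-derived PONY domain was biotinylated and paired with streptavidin Tb cryptate. Compounds in 0.1% DMSO were then added to DCN1 and FAM-probe (5 nM/20 nM, or 0.31 nM/900 nM total with 800 nM unlabelled) in TritonX, 200 mM NaCl buffer. Finally, TR-FRET ratios were recorded at 1, 5 and 24 hrs.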

[2] = test system: fetal hemoglobin gene HBG1; assay: HBG1 Nanostring Assay in CD34+ HSPC erythroid differentiation culture; type: cell-based, human; conditions: for EC50: Homo sapiens, 240 h, HBG1 induction, Day10 of erythroid differentiation; for Nanostring Ymax obs (%): relative to a control compound (C1)
Procedure, shortened: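 HBG1 counts came from direct nCounter hybridization (67° C, 22 h) of day-10 lysates, normalized to ERCC positive controls and a housekeeping gene, giving EC50 and Ymax versus a reference compound. Compounds in 0.1% DMSO were present from day −2 while cells underwent EPO/SCF/IL-3 erythroid differentiation, with IL-3 dropped at day 7, at 37° C.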

[3] = 24 hr after treatment with compound, read-out: TR FRET IC50 24 hr
[4] = read-out: TR FRET IC50 1 hr, 1 hr after treatment with compound

Chain of DCN1 (DCUND1) protein PONY domain (Q96GG9 60-248): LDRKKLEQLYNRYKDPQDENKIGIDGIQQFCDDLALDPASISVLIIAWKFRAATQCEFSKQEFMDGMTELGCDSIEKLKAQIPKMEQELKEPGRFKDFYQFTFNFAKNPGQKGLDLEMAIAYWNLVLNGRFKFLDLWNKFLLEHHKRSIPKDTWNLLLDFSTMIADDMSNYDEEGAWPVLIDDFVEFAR

Compound CCN1C(=O)[C@@H](NC(=O)c2cccc(C(F)(F)F)c2)[C@@H](C2CC2)c2c(C(=O)N3CC[C@H](OC)[C@H]3C#N)nn(C3CCOCC3)c21 [Compound I-418] has an IC50 [1, 3] of no more than 200 nM, an IC50 [1, 4] of no more than 200 nM and an EC50 [2] of no more than 100 nM. The “Nanostring Ymax obs (%)” value [2] was “+++ (Nanostring Ymax greater than 100.0)”.

Compound CCN1C(=O)[C@@H](NC(=O)c2cccc(C(F)(F)F)c2)[C@@H](C2CC2)c2c(C(=O)N(C)[C@H](C)C#N)nn(C3CCOCC3)c21 [Compound I-422] has an IC50 [1, 3] of no more than 200 nM, an IC50 [1, 4] of no more than 200 nM and an EC50 [2] of 100 to 1000 nM. The “Nanostring Ymax obs (%)” value [2] was “+++ (Nanostring Ymax greater than 100.0)”.

For CCc1cccc(C(=O)N[C@@H]2C(=O)N(CC)c3c(c(C(=O)N4[C@H](C#N)C[C@H]5C[C@H]54)nn3C3CCOCC3)[C@@H]2C2CC2)c1 [Compound I-552, N-((4S,5S)-3-((1R,3S,5R)-3-cyano-2-azabicyclo[3.1.0]hexane-2-carbonyl)-4-cyclopropyl-7-ethyl-6-oxo-1-(tetrahydro-2H-pyran-4-yl)-4,5,6,7-tetrahydro-1H-pyrazolo[3,4-b]pyridin-5-yl)-3-ethylbenzamide], the IC50 [1, 3] was no more than 200 nM, the IC50 [1, 4] was no more than 200 nM and the EC50 [2] was no more than 100 nM. The “Nanostring Ymax obs (%)” value [2] was “+++ (Nanostring Ymax greater than 100.0)”.

With CCN1C(=O)[C@@H](NC(=O)c2cccc(C(F)(F)F)c2)[C@@H](C2CC2)c2c(C(=O)N3CCNC[C@H]3C#N)nn(C3CCOCC3)c21 [Compound I-582] the IC50 [1, 3] was no more than 200 nM, the IC50 [1, 4] was no more than 200 nM and the EC50 [2] was 100 to 1000 nM. The “Nanostring Ymax obs (%)” value [2] was “+++ (Nanostring Ymax greater than 100.0)”.

CCN1C(=O)[C@@H](NC(=O)c2cccc(C(F)(F)F)c2)[C@@H](C2CC2)c2c(C(=O)N3CS(=O)(=O)C[C@H]3C#N)nn(C3CCOCC3)c21 [Compound I-617] was tested, and the IC50 [1, 3] was no more than 200 nM, the IC50 [1, 4] was no more than 200 nM and the “Nanostring Ymax obs (%)” value [2] was “+ (Nanostring Ymax greater than or equal to 0.0 and less than or equal to 50.0)”.

CCN1C(=O)[C@@H](NC(=O)c2cccc(C(F)(F)F)c2)[C@@H](C2CCC2)c2c(C(=O)N3CCC[C@H]3C#N)nn(C3CCOCC3)c21 [Compound I-692] gave an IC50 [1, 3] of no more than 200 nM, an IC50 ([1]; TR FRET IC50 1 hr (nM), 1 hr after treatment with compound) of 200 to 1000 nM and an EC50 [2] of no more than 100 nM. For the same compound, the “Nanostring Ymax obs (%)” value [2] was “+++ (Nanostring Ymax greater than 100.0)”.
